One compound from patent US11541056B2, “3-hydroxy-N-(3-(7H-pyrrolo[2,3-d]pyrimidin-4-yl)phenyl)pyrrolidine-1-carboxamide derivatives” (NOVARTIS AG, priority 2018, dated 2023) can be followed below.

The target in assay [1] is T1, BTK(C481S)-GFP (Homo sapiens, UniProt Q06187+Q96SW2, C481S).
T1 construct: with a mutagenesis reaction on pENTR221-BTK (STOP-Leu); CHYSEL (cis-acting hydrolase element, 2A) remnant after GFP; mCherry is split off as a separate protein (C); expressed in transfected cells; host or cells: TMD8 cells, lentiviral transduction with pLenti6-BTK(C481S)-GFP-CHYSEL-mCherry
T1 sequence (Q06187 whole entry C481S): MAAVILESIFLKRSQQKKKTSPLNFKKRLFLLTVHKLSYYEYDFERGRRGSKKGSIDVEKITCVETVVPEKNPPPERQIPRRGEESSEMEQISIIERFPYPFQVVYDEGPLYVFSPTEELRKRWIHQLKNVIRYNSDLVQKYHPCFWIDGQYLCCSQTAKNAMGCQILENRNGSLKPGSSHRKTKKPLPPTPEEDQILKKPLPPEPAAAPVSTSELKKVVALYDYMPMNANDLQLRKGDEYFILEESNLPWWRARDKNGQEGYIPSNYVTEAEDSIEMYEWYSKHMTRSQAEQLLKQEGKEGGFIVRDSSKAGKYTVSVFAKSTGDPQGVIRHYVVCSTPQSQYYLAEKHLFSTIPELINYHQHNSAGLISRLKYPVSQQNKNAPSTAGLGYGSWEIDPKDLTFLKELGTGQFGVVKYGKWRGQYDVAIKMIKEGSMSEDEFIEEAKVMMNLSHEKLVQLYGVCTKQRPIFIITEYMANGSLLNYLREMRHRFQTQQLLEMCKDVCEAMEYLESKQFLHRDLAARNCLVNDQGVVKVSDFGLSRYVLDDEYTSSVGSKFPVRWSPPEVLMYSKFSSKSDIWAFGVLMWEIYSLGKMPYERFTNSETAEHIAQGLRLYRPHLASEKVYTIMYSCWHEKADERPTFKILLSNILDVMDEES
T1 sequence (Q96SW2 whole entry): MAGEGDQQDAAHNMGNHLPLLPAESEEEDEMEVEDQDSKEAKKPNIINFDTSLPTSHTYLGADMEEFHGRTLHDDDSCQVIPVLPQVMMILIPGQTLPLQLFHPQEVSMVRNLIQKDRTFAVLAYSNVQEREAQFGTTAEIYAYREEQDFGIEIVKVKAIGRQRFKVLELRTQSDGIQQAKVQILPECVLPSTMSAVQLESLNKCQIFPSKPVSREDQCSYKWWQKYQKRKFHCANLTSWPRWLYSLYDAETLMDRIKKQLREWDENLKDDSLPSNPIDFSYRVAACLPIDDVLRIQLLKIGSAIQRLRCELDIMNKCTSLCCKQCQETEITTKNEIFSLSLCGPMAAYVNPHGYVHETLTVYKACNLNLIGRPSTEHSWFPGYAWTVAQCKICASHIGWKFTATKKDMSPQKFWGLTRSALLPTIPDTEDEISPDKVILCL
T1 sequence (Q16531 whole entry partner): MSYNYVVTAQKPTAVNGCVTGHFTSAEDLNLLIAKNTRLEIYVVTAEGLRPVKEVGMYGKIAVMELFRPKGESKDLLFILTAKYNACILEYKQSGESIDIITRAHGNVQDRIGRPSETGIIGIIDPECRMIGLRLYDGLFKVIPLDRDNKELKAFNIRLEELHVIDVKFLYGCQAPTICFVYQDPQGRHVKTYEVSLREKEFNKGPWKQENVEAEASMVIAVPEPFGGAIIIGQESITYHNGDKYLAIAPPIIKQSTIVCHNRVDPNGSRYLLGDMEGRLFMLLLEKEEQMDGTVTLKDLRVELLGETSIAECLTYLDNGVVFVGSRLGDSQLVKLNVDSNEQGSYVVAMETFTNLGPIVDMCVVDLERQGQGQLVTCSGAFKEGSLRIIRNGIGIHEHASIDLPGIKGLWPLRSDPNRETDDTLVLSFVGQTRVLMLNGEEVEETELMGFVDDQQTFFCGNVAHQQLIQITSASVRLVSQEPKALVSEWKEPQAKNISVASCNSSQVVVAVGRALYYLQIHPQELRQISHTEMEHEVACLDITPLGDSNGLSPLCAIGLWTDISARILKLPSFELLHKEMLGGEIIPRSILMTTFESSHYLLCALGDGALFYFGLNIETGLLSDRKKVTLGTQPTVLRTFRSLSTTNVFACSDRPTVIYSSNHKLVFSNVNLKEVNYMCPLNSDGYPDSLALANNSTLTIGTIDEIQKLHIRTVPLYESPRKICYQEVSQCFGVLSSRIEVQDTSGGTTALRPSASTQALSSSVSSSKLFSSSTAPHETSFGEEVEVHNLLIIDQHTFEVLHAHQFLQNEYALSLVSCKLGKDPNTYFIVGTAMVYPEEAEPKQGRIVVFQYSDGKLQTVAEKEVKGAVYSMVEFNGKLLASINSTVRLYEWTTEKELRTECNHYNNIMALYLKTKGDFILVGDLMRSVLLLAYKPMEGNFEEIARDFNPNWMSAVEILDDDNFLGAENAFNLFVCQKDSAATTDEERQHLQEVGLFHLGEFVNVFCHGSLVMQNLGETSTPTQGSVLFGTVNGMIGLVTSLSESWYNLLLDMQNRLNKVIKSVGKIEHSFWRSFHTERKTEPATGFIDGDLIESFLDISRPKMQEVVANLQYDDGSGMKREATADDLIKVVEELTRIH
The experiment in a line: BTK(C481S)-GFP protein abundance flow cytometry assay in TMD8 cells. The assay is classed as cell-based. The method, then:
Compounds of the invention were tested in the following cellular assays. The terms in Table 1 are defined as follows: DC50 refers to the concentration at which 50% maximal degradation was observed; deg Amax is the extent of degradation and the value refers to the % protein remaining at the concentration at which maximum degradation is seen; Prol GI50 refers to the proliferation data and defines the concentration at which 50% growth inhibition was observed compared to the vehicle treated control at the end of the incubation time. TMD8 cells are BTK dependent and OCI-LY3 cells are BTK independent.
BTK(C481S)-GFP Protein Abundance Flow Cytometry Assay in TMD8 Cells:
Degradation of BTK(C481S) was measured in TMD8 cells expressing BTK(C481S)-GFP and mCherry from a stably integrated second generation bicistronic BTK(C481S)-GFP-CHYSEL-mCherry construct. Reduction of the GFP signal measured by flow cytometry served as readout for BTK(C481S) degradation after degrader treatment.
In general terms: A flow cytometer gives signals particle by particle.

For assay [2], the system named is TMD8 cells. The assay is described as follows: Resazurin cell viability assay in DLBCL cells (TMD8). In kind it is cell-based. As to conditions: Homo sapiens, TMD8, 72 h, TMD8 cells (BTK dependent), 50% growth inhibition, read-out: TMD8 Prol GI50. Summed up: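 Cells seeded at 1×10^4 per well in triplicate, treated 3 h later for 72 h with an 8-point 1:4 dilution series starting at 1 μM. Resazurin (13 μg/ml final) added for the last 2 h; resorufin fluorescence read at 530/600 nm. GI50 versus vehicle control, usually from ≥2 independent experiments.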

Structures are written as SMILES.

By DC50 is commonly meant the midpoint of the concentration-degradation curve. A lower DC50 goes with degradation at low concentration. In general, GI50 refers to the concentration that inhibits growth by half. Regarding `COc1ccc(C(=O)N2CCC(CCN3CCC(OCc4ccc(-c5cc6c(-c7cc(F)cc(NC(=O)N8C[C@H](CC(C)C)[C@@H](O)C8)c7C)ncnc6[nH]5)cc4)CC3)CC2)cc1N1CCC(=O)NC1=O` [Compound 22, (3R,4S)—N-(3-(6-(4-(((1-(2-(1-(3-(2,4-Dioxotetrahydropyrimidin-1 (2H)-yl)-4-methoxybenzoyl)piperidin-4-yl)ethyl)piperidin-4-yl)oxy)methyl)phenyl)-7H-pyrrolo[2,3-d]pyrimidin-4-yl)-5-fluoro-2-methylphenyl)-3-hydroxy-4-isobutylpyrrolidine-1-carboxamide], the “BTK (C481S) Amax %” value in assay [1] (% protein remaining at concentration of maximum degradation) was 2.1%. The 50% degradation concentration (DC50) in assay [1] (concentration at which 50% maximal degradation was observed) was 0.4 nM. Besides, in assay [2], the GI50 was 0.23 nM.
